Test results taken from ChEMBL document CHEMBL5375979, “Chemical, Biochemical, Cellular, and Physiological Characterization of Leucettinib-21, a Down Syndrome and Alzheimer's Disease Drug Candidate” (J Med Chem, 2023).

What was measured:
[1] = molecular target: T1, Dual specificity protein kinase CLK4 (Homo sapiens, UniProt Q9HAZ1)
[2] = molecular target: Death-associated protein kinase 3 (Homo sapiens) (UniProt O43293); settings: dose 10.0 µM
[3] = molecular target: T2, Homeodomain-interacting protein kinase 2 (Homo sapiens, UniProt Q9H2X6)
Target sequence in this assay (Q9H2X6 whole entry): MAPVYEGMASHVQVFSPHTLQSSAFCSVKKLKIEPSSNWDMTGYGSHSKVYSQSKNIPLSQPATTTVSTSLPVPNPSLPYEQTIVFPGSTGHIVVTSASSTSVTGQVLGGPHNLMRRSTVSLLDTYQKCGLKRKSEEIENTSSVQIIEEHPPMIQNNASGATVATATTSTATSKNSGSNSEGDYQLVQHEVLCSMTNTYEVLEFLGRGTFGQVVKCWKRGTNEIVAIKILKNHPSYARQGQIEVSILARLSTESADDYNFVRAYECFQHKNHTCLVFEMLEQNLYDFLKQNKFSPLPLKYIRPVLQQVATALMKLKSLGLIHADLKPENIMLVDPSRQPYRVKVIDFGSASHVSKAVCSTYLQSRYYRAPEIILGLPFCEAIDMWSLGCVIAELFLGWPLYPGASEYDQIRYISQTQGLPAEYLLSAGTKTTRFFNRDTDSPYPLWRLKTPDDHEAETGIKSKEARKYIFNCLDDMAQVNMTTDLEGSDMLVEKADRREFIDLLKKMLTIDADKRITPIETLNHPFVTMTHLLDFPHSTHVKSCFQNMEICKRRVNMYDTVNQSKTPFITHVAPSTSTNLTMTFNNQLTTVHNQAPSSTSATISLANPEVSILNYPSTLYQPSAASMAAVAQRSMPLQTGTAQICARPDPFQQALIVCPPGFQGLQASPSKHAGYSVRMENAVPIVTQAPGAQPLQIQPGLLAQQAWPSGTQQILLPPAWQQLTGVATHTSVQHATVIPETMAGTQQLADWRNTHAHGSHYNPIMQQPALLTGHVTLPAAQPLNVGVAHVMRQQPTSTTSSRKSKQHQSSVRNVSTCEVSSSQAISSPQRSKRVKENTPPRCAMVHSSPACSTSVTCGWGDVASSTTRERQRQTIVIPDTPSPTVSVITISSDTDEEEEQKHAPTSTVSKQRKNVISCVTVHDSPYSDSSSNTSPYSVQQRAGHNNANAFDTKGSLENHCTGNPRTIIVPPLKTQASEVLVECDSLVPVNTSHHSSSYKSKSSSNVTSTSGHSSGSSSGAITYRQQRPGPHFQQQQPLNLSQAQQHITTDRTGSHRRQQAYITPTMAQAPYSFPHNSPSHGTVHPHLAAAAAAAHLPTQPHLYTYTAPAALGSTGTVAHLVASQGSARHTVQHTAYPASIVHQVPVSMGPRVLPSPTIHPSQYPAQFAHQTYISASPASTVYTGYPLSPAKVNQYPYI
Description: Inhibition of human HIPK2 assessed as remaining activity by eurofins-cerep kinase profiler analysis

[4] = molecular target: Mitogen-activated protein kinase 15 (Homo sapiens) (UniProt Q8TD08); settings: dose 10.0 µM
Mitogen-activated protein kinase 15 (Homo sapiens), sequence (Q8TD08 whole entry): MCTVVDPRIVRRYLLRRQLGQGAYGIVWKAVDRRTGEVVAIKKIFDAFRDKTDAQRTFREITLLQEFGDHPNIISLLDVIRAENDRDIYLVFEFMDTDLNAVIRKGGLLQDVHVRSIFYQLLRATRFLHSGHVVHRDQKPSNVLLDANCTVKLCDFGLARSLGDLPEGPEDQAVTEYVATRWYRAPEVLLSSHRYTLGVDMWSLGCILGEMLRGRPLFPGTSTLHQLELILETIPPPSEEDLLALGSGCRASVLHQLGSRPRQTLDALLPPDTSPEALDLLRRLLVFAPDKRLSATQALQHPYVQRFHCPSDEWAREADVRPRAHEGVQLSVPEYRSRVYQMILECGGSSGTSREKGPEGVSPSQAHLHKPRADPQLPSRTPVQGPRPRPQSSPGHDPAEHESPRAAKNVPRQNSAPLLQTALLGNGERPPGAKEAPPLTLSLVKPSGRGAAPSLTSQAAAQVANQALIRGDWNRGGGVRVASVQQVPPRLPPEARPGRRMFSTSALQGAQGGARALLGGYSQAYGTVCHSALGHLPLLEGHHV

[5] = molecular target: T2, Homeodomain-interacting protein kinase 2; settings: dose 10.0 µM
Target sequence in this assay (Q9H2X6 whole entry, looked up): as the sequence (Q9H2X6 whole entry) above

[6] = molecular target: T3, Dual specificity protein kinase CLK1 (Homo sapiens, UniProt P49759)
Target sequence in this assay (P49759 whole entry): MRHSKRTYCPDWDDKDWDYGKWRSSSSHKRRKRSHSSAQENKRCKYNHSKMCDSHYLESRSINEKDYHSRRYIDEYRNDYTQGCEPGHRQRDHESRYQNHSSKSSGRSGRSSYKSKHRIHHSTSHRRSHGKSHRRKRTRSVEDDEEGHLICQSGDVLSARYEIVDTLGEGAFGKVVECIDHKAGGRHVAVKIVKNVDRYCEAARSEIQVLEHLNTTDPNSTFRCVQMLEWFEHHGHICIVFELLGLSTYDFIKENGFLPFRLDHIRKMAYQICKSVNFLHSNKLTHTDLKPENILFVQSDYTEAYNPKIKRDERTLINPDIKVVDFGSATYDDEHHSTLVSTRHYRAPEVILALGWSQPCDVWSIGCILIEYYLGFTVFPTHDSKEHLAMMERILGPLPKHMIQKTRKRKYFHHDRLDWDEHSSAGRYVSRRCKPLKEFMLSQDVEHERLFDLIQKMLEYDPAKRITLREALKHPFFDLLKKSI

[7] = molecular target: Serine/threonine-protein kinase PIM (Homo sapiens) (UniProt P11309+Q9P1W9+Q86V86); settings: dose 10.0 µM
[8] = molecular target: BMP-2-inducible protein kinase (Homo sapiens) (UniProt Q9NSY1); settings: dose 10.0 µM
[9] = molecular target: T3, Dual specificity protein kinase CLK1; remark: listed apart in the source
Target sequence in this assay (P49759 whole entry): as above

[10] = molecular target: Maternal embryonic leucine zipper kinase (Homo sapiens) (UniProt Q14680); settings: dose 10.0 µM
Maternal embryonic leucine zipper kinase (Homo sapiens), sequence (Q14680 whole entry, looked up): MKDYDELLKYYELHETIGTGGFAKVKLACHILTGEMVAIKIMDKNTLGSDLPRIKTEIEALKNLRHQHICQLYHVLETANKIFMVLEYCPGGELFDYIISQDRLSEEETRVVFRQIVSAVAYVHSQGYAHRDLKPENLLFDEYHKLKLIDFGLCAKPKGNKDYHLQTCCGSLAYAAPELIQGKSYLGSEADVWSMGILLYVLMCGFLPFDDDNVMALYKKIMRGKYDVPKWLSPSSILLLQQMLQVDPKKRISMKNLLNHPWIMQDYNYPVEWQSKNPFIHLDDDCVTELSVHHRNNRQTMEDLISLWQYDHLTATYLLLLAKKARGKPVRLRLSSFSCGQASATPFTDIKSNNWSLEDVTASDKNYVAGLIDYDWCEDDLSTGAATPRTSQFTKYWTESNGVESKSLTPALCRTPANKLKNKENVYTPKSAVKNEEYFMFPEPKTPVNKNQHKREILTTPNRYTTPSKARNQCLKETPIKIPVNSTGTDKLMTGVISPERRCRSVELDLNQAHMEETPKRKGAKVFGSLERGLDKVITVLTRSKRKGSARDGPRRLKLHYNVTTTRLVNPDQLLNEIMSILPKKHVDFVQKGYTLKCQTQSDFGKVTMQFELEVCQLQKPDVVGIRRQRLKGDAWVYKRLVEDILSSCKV

[11] = molecular target: Serine/threonine-protein kinase TAO2 (Homo sapiens, UniProt Q9UL54)
Description: Inhibition of human TAO2 assessed as remaining activity by eurofins-cerep kinase profiler analysis

[12] = molecular target: Serine/threonine-protein kinase TAO3 (Homo sapiens, UniProt Q9H2K8)
Description: Inhibition of human TAO3 assessed as remaining activity by eurofins-cerep kinase profiler analysis

[13] = molecular target: Dual specificity tyrosine-phosphorylation-regulated kinase 2 (Homo sapiens) (UniProt Q92630); settings: dose 10.0 µM
[14] = molecular target: T4, AP2-associated protein kinase 1 (Homo sapiens, UniProt Q2M2I8); settings: dose 10.0 µM
[15] = molecular target: Myotonin-protein kinase (Homo sapiens, UniProt Q09013)
Description: Inhibition of human DMPK assessed as remaining activity by eurofins-cerep kinase profiler analysis

[16] = molecular target: Serine/threonine-protein kinase TAO1 (Homo sapiens, UniProt Q7L7X3)
Description: Inhibition of human TAO1 assessed as remaining activity by eurofins-cerep kinase profiler analysis

[17] = molecular target: T4, AP2-associated protein kinase 1
Description: Inhibition of human AAK1 assessed as remaining activity by eurofins-cerep kinase profiler analysis

[18] = molecular target: Serine/threonine-protein kinase PLK4 (Homo sapiens) (UniProt O00444); settings: dose 10.0 µM
[19] = molecular target: Glycogen synthase kinase-3 beta (Homo sapiens) (UniProt P49841); settings: dose 10.0 µM
Glycogen synthase kinase-3 beta (Homo sapiens), sequence (P49841 whole entry, looked up): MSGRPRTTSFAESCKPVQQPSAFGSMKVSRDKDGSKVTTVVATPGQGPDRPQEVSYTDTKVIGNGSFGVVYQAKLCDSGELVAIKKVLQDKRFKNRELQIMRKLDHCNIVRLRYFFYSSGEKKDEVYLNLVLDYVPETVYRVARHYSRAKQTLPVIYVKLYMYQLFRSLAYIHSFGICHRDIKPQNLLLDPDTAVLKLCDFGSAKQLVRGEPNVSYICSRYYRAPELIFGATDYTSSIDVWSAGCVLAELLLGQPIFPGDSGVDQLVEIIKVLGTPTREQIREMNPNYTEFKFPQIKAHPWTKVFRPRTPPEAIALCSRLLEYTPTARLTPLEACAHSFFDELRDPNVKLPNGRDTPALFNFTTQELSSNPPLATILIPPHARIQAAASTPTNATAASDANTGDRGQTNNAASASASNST

[20] = molecular target: T5, Dual specificity tyrosine-phosphorylation-regulated kinase 3 (Homo sapiens, UniProt O43781)
T5 sequence (O43781 whole entry): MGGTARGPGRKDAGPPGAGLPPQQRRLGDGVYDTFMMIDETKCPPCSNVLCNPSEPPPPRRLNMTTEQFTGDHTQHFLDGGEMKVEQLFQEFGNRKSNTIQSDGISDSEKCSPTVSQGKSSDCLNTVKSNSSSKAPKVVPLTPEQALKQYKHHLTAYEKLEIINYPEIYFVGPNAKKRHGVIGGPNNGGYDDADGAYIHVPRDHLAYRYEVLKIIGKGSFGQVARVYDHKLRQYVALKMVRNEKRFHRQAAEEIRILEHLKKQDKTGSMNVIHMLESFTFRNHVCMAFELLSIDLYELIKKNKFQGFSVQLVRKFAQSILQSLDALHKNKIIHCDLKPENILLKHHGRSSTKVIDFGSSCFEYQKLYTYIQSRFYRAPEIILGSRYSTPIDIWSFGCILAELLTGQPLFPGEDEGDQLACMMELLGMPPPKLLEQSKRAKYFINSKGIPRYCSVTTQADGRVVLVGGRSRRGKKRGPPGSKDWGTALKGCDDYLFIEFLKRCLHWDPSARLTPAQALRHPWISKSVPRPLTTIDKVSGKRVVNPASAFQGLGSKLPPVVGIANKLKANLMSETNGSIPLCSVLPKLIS
Description: Inhibition of human DYRK3 assessed as remaining activity by eurofins-cerep kinase profiler analysis

[21] = molecular target: Homeodomain-interacting protein kinase 3 (Homo sapiens, UniProt Q9H422)
Description: Inhibition of human HIPK3 assessed as remaining activity by eurofins-cerep kinase profiler analysis

[22] = molecular target: Tribbles homolog 2 (Homo sapiens, UniProt Q92519)
Description: Inhibition of human TRB2 assessed as remaining activity by eurofins-cerep kinase profiler analysis

[23] = molecular target: T3, Dual specificity protein kinase CLK1; settings: dose 10.0 µM
Target sequence in this assay (P49759 whole entry, looked up): as the sequence (P49759 whole entry) above

[24] = molecular target: T6, Dual specificity tyrosine-phosphorylation-regulated kinase 2 (Homo sapiens, UniProt Q92630)
T6 sequence (Q92630 whole entry): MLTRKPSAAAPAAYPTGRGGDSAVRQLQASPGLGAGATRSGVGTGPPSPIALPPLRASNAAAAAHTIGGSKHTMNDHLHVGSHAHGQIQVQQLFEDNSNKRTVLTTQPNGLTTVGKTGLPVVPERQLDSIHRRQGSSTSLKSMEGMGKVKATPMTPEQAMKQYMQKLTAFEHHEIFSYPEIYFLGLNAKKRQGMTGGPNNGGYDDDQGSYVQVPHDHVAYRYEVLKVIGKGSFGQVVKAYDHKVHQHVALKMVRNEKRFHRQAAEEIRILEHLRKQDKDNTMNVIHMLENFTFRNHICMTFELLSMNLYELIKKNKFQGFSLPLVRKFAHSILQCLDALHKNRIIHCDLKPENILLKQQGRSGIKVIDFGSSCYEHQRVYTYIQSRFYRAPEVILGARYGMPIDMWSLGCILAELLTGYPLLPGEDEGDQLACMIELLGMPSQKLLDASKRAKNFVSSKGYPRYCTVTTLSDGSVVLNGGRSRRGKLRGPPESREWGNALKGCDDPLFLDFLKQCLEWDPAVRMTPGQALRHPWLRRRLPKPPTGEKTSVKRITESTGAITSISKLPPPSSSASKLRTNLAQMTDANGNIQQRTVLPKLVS
Description: Inhibition of human DYRK2 assessed as remaining activity by eurofins-cerep kinase profiler analysis

[25] = molecular target: Aurora kinase A (Homo sapiens) (UniProt O14965); settings: dose 10.0 µM
Aurora kinase A (Homo sapiens), sequence (O14965 whole entry): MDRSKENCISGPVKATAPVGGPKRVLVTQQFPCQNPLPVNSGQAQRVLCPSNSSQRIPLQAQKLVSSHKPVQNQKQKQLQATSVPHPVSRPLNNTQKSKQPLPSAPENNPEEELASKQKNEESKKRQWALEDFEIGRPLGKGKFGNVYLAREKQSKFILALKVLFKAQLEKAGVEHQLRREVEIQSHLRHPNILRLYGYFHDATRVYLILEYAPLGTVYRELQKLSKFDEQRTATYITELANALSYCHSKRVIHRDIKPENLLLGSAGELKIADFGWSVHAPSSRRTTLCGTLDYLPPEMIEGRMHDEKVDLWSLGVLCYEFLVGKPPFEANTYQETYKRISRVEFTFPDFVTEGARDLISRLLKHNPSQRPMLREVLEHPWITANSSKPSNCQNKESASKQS

[26] = molecular target: Cyclin-dependent kinase-like 1 (Homo sapiens, UniProt Q00532)
Description: Inhibition of human CDKL1 assessed as remaining activity by eurofins-cerep kinase profiler analysis

[27] = molecular target: Serine/threonine-protein kinase haspin (Homo sapiens, UniProt Q8TF76)
Description: Inhibition of human HASPIN assessed as remaining activity by eurofins-cerep kinase profiler analysis

[28] = molecular target: T1, Dual specificity protein kinase CLK4; remark: listed apart in the source
[29] = molecular target: Cyclin-dependent kinase-like 4 (Homo sapiens, UniProt Q5MAI5)
Cyclin-dependent kinase-like 4, sequence (Q5MAI5 whole entry): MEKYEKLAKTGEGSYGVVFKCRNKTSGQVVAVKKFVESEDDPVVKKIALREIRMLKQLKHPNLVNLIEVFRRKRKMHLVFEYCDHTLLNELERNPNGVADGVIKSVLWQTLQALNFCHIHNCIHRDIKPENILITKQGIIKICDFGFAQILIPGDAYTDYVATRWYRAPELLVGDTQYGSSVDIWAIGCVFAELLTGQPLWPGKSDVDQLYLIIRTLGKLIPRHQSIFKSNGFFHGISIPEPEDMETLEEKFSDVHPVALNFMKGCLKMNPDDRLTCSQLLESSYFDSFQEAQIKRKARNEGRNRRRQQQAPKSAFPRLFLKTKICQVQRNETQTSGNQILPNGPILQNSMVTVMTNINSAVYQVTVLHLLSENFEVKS
Description: Inhibition of human CDKL4 assessed as remaining activity by eurofins-cerep kinase profiler analysis

[30] = molecular target: Cyclin-G-associated kinase (Homo sapiens) (UniProt O14976); settings: dose 10.0 µM

T1 sequence (Q9HAZ1 whole entry): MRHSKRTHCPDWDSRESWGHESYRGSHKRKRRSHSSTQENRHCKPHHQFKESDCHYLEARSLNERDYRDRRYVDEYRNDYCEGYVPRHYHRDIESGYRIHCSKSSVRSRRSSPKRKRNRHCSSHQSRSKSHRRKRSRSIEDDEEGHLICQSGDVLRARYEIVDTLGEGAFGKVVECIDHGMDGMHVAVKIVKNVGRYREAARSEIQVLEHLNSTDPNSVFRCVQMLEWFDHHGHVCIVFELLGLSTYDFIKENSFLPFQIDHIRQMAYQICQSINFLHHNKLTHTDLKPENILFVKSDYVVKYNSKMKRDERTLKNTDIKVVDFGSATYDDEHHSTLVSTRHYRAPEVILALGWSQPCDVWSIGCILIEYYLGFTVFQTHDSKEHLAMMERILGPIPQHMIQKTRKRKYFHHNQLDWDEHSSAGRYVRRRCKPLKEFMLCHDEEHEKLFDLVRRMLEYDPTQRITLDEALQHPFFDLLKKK

In the case of COC[C@@H](CC(C)C)NC1=N/C(=C\c2ccc3scnc3c2)C(=O)N1, the IC50 [1] is reported as > 10 µM, the ΔTm [2] is reported as 1.2 °C and the IC50 [3] is reported as > 10 µM. The ΔTm [4] was 4.7 °C, the ΔTm [5] was 0.6 °C and the IC50 [6] was > 1 µM. For the same compound, the ΔTm [7] was 4.5 °C, the ΔTm [8] was 4 °C and the IC50 [9] was > 10 µM. For the same compound, the ΔTm [10] was 0.4 °C, the IC50 [11] was > 10 µM and the IC50 [12] was > 10 µM. For the same compound, the ΔTm [13] was 1.7 °C, the ΔTm [14] was 6 °C and the IC50 [15] was > 1 µM. The IC50 [16] was > 10 µM, the IC50 [17] was “Not Active” and the ΔTm [18] was 1.4 °C. The ΔTm [19] was 2.1 °C, the IC50 [20] was > 1 µM and the IC50 [21] was > 10 µM. The IC50 [22] was > 1 µM, the ΔTm [23] was 3 °C and the IC50 [24] was > 1 µM. The ΔTm [25] was 1.4 °C, the IC50 [26] was > 1 µM and the IC50 [27] was > 10 µM. The IC50 [28] was > 1 µM, the IC50 [29] was > 1 µM and the ΔTm [30] was 3.5 °C.
